Experimental data: US20170105969A1, “CENICRIVIROC FOR THE TREATMENT OF HIV-2 INFECTION” (Tobira Therapeutics, Inc., priority 2014, published 2017)

System: CCR5-tropic HIV-1 BaL
Assay: PM-1 cells infected with HIV-1 BaL, supernatant P24 and viral load after 4 hours
Type: cell-based
Settings: CVC 20 nM or MVC 50 nM
Experimental: Early (strong-stop) and late (full-length) reverse transcript levels were measured by qPCR. […] P24 and viral load levels were measured by ELISA and qRT-PCR after 4 hours.

`CCCCOCCOc1ccc(-c2ccc3c(c2)/C=C(/C(=O)Nc2ccc([S@@+]([O-])Cc4cncn4CCC)cc2)CCCN3CC(C)C)cc1` [CVC, (S)-8-[4-(2-Butoxyethoxy)phenyl]-1-isobutyl-N-(4-{[(1-propyl-1H-imidazol-5-yl)methyl]sulfinyl}phenyl)-1,2,3,4-tetrahydro-1-benzazocine-5-carboxamide] was tested, and the “supernatant P24” value (0 hrs (baseline)) was 506 ng/mL, the viral load (0 hrs) was 1.19×10^10 copies/ml and the “supernatant P24” value (4 hrs) was 192 ng/mL. The viral load (4 hrs) was 1.26×10^10 copies/ml.
